Assay results as given in ChEMBL document CHEMBL1201862, “PubChem BioAssay data set” (2004).
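Values below derive from 48-hour exposures of cells grown in 96-well plates, with endpoints linearly interpolated between the two concentrations bracketing the appropriate inhibition level. GI50 is the concentration that inhibits growth by half.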 Activity calls are given as the source filed them. Rule as the data show it: active = GI50 up to about 1.1 µM and inactive = higher.

Experiments:
Assay in all cases: NCI anticancer screen, dose series, 48 h
[1] = system: MDA-MB-231
[2] = system: HCT-15
[3] = system: MDA-N
[4] = system: EKVX
[5] = system: HL-60
[6] = system: SN12C
[7] = system: MOLT-4
[8] = system: SR
[9] = system: HCC 2998
[10] = system: OVCAR-5
[11] = system: U-251
[12] = system: HCT-116
[13] = system: SW-620
[14] = system: UO-31
[15] = system: MDA-MB-435
[16] = system: ACHN
[17] = system: MCF7
[18] = system: RXF 393
[19] = system: SF-539

SMILES	GI50 [1]	GI50 [2] [µM]	GI50 [3]	GI50 [4]	GI50 [5]	GI50 [6]	GI50 [7]	GI50 [8]	GI50 [9]	GI50 [10]	GI50 [11]	GI50 [12]	GI50 [13]	GI50 [14]	GI50 [15]	GI50 [16]	GI50 [17]	GI50 [18]	GI50 [19]
BrCC[N+]12CC[N+](CCBr)(CC1)C2	> 100 µM (inactive)	> 100	> 100 µM (inactive)	> 100 µM (inactive)	> 100 µM (inactive)	> 100 µM (inactive)	> 100 µM (inactive)	> 100 µM (inactive)	> 100 µM (inactive)	> 100 µM (inactive)	> 100 µM (inactive)	> 100 µM (inactive)	> 100 µM (inactive)	> 100 µM (inactive)	> 100 µM (inactive)	> 100 µM (inactive)	> 100 µM (inactive)	> 100 µM (inactive)	> 100 µM (inactive)
O=c1c2nc(-c3ccccc3)oc2n(-c2ccccc2)c(=O)n1-c1ccccc1	29.3 µM (inactive)	> 46.5	> 46.5 µM (inactive)	28.4 µM (inactive)	> 100 µM (inactive)	36.2 µM (inactive)	> 46.5 µM (inactive)	> 31.6 µM (inactive)	> 46.5 µM (inactive)	> 46.5 µM (inactive)	19.3 µM (inactive)	31.7 µM (inactive)	> 46.5 µM (inactive)	22 µM (inactive)	> 46.5 µM (inactive)	25.9 µM (inactive)	45.7 µM (inactive)	18.1 µM (inactive)	20.2 µM (inactive)
COc1ccc(C(=O)Cn2c(C(=O)/C=C/c3ccco3)nc3ccccc32)cc1	28.7 µM (inactive)	33.3	26 µM (inactive)		22.1 µM (inactive)	39.1 µM (inactive)	15.8 µM (inactive)	10 µM (inactive)	16.6 µM (inactive)	> 100 µM (inactive)	32.7 µM (inactive)	29.3 µM (inactive)	31.4 µM (inactive)	31.6 µM (inactive)	24.4 µM (inactive)	42.8 µM (inactive)	19.4 µM (inactive)	41.3 µM (inactive)	34 µM (inactive)
C/C=C1\C(=O)O[C@H]2C/C(C)=C/CC/C(C)=C/CC[C@@]3(C)O[C@@H]3C[C@@H]12	> 100 µM (inactive)	54.3	> 100 µM (inactive)	> 100 µM (inactive)	52 µM (inactive)	> 100 µM (inactive)	95.1 µM (inactive)	37.8 µM (inactive)	> 100 µM (inactive)	> 100 µM (inactive)	85.5 µM (inactive)	> 100 µM (inactive)	> 100 µM (inactive)	> 100 µM (inactive)	> 100 µM (inactive)	> 100 µM (inactive)	> 100 µM (inactive)	> 100 µM (inactive)	> 100 µM (inactive)
Cn1c(=O)n(CC(Br)CBr)c(=O)n(CC(Br)CBr)c1=O (centres undefined)	33.7 µM (inactive)	36.2	28.8 µM (inactive)	25.2 µM (inactive)	20.4 µM (inactive)	26 µM (inactive)	26.3 µM (inactive)	18.4 µM (inactive)	28.4 µM (inactive)	43.9 µM (inactive)	43.3 µM (inactive)	25.9 µM (inactive)	30.9 µM (inactive)	25.5 µM (inactive)	29.9 µM (inactive)	36.6 µM (inactive)	45.8 µM (inactive)	32.8 µM (inactive)	25.3 µM (inactive)
COc1cccc(C2c3cc4c(cc3OC(N3CCOCC3)C2C)OCO4)c1O (centres undefined)	11.6 µM (inactive)	3.32	1.03 µM (active)	9.14 µM (inactive)	2.26 µM (inactive)	6.59 µM (inactive)	4.02 µM (inactive)	1.23 µM (inactive)	7.23 µM (inactive)	7.46 µM (inactive)	0.38 µM (active)	3.84 µM (inactive)	3.87 µM (inactive)	8.3 µM (inactive)	1.24 µM (inactive)	10.1 µM (inactive)	5.14 µM (inactive)	2.13 µM (inactive)	2.69 µM (inactive)
CNC(=S)/N=c1/sc(NC)nc2sc3c(c12)CCCC3	51.9 µM (inactive)	> 100	> 100 µM (inactive)	76.6 µM (inactive)	> 100 µM (inactive)	> 100 µM (inactive)	> 100 µM (inactive)	> 100 µM (inactive)	> 100 µM (inactive)	> 100 µM (inactive)	35.4 µM (inactive)	> 100 µM (inactive)	> 100 µM (inactive)	> 100 µM (inactive)	> 100 µM (inactive)	> 100 µM (inactive)	> 100 µM (inactive)	22.5 µM (inactive)	
COc1ccccc1NCc1nnc(CCCCCCCCc2nnc(CNc3ccccc3OC)o2)o1	> 100 µM (inactive)	> 100	> 100 µM (inactive)	> 100 µM (inactive)		> 100 µM (inactive)	> 100 µM (inactive)	> 100 µM (inactive)	> 100 µM (inactive)	> 100 µM (inactive)	> 100 µM (inactive)	> 100 µM (inactive)		> 100 µM (inactive)	> 100 µM (inactive)	> 100 µM (inactive)	> 100 µM (inactive)	> 100 µM (inactive)	
C/C(CC1SCCCS1)=C(/C)CC1SCCCS1	> 100 µM (inactive)	> 100	> 100 µM (inactive)	> 100 µM (inactive)	> 100 µM (inactive)	> 100 µM (inactive)	> 100 µM (inactive)	> 100 µM (inactive)	> 100 µM (inactive)	> 100 µM (inactive)		> 100 µM (inactive)	> 100 µM (inactive)	> 100 µM (inactive)	> 100 µM (inactive)	> 100 µM (inactive)	> 100 µM (inactive)	> 100 µM (inactive)	> 100 µM (inactive)
C=C1C(=O)C[C@H]2C(=C)C(=O)O[C@@H]2C2C1CC[C@@]2(C)O (some centres undefined)	25.1 µM (inactive)	17.7	29.7 µM (inactive)	62.8 µM (inactive)	> 100 µM (inactive)	42.6 µM (inactive)	23.2 µM (inactive)	27.1 µM (inactive)	19 µM (inactive)	32.8 µM (inactive)	45.6 µM (inactive)	31.8 µM (inactive)	23 µM (inactive)	23.2 µM (inactive)	30.3 µM (inactive)	12.2 µM (inactive)	16 µM (inactive)	15.4 µM (inactive)	26.8 µM (inactive)
CC(=S)NC=C(C(N)=O)C(N)=O	> 100 µM (inactive)	> 100	> 100 µM (inactive)	> 100 µM (inactive)	> 100 µM (inactive)	> 100 µM (inactive)	> 100 µM (inactive)	> 100 µM (inactive)	> 100 µM (inactive)	> 100 µM (inactive)	> 100 µM (inactive)	> 100 µM (inactive)	> 100 µM (inactive)		> 100 µM (inactive)	> 100 µM (inactive)	> 100 µM (inactive)	> 100 µM (inactive)	> 100 µM (inactive)
CC(C)(C)C(=O)OCC1CCC[N+]2(C)CCCCC12 (centres undefined)	> 100 µM (inactive)	> 100	> 100 µM (inactive)	> 100 µM (inactive)		> 100 µM (inactive)	> 100 µM (inactive)	> 100 µM (inactive)	> 100 µM (inactive)	> 100 µM (inactive)	> 100 µM (inactive)	> 100 µM (inactive)	> 100 µM (inactive)	> 100 µM (inactive)	> 100 µM (inactive)	> 100 µM (inactive)	> 100 µM (inactive)	> 100 µM (inactive)	> 100 µM (inactive)
O=C(O)[C@@H]1NC[C@H]2C(Br)=NO[C@H]21	> 100 µM (inactive)	> 100	> 100 µM (inactive)	> 100 µM (inactive)	> 100 µM (inactive)	> 100 µM (inactive)	29.3 µM (inactive)	23.4 µM (inactive)	> 100 µM (inactive)	> 100 µM (inactive)	> 100 µM (inactive)	> 100 µM (inactive)	> 100 µM (inactive)	> 100 µM (inactive)	> 100 µM (inactive)	> 100 µM (inactive)	86.9 µM (inactive)	> 100 µM (inactive)	
CCC(N)(C(=O)O)C(C)C (centres undefined)	> 100 µM (inactive)	> 100	> 100 µM (inactive)	> 100 µM (inactive)	> 100 µM (inactive)	> 100 µM (inactive)		> 100 µM (inactive)	> 100 µM (inactive)	> 100 µM (inactive)	> 100 µM (inactive)	> 100 µM (inactive)	> 100 µM (inactive)	> 100 µM (inactive)	> 100 µM (inactive)	> 100 µM (inactive)	> 100 µM (inactive)	> 100 µM (inactive)	> 100 µM (inactive)
COC(=O)/N=[N+](\[O-])C(c1ccccc1)c1ccccc1	> 100 µM (inactive)	89.7	59.2 µM (inactive)	27.6 µM (inactive)	> 100 µM (inactive)	> 100 µM (inactive)	> 100 µM (inactive)	> 100 µM (inactive)	> 100 µM (inactive)	> 100 µM (inactive)	> 100 µM (inactive)	> 100 µM (inactive)	> 100 µM (inactive)	13.4 µM (inactive)	31 µM (inactive)		> 100 µM (inactive)	63.8 µM (inactive)	> 100 µM (inactive)
